Source: patent publication US6110122A, “Breath test for assessing hepatic function” (priority 1999, dated 2000)
Values joined by “and” are separate entries in the source; they are usually repeats but may differ in a detail not shown here. Identical values can stand only once. Each block holds one compound with its values, some of them ahead of it.

Assays:
[1] = test system: hepatic mitochondria; conditions: in vivo; cited from earlier work
[2] = cited from earlier work
[3] = test system: cytosolic function; conditions: patients with alcoholic disease; cited from earlier work
[4] = test system: hepatic mitochondrial function; assay: Effect of alcohol and ASA ingestion on the MBT in healthy controls; assay type: in vivo, human; conditions: for effect of ingestion on MBT (in words): healthy controls
Method: […] The protocol was then identical to that described previously in Example 1.
The protocol for breath collection was followed as described previously.
The maximum percent dose oxidized per minute was calculated for each substrate following the procedure outlined above in Example 1.

[5] = test system: mitochondrial function; conditions: therapeutic doses of ASA; cited from earlier work
[6] = test system: hepatic mitochondrial function; conditions: in vivo
[7] = test system: hepatic mitochondrial function; assay: MBT in patients with liver disease, reproducibility and correlation with Child-Pugh score
[8] = cited from earlier work; remark: listed apart in the source

Structure (SMILES): CC(C)CC(=O)C(=O)O [KICA, ketoisocaproic acid]
reduction in ^14 CO2 production [1]: 75%
stability in solution (in words) [2]: instability in solution

Structure (SMILES): Cc1c(N(C)C)c(=O)n(-c2ccccc2)n1C [aminopyrine]
aminopyrine breath test / galactose elimination capacity (in words) [3]: normal

Structure (SMILES): CC(=O)Oc1ccccc1C(=O)O [ASA, acetylsalicylic acid]
mean change of MBT from baseline with ASA ([4]; ASA, n=11, p<0.001): 36±36%
effect of ingestion on MBT (in words) [4]: increases
MBT after ASA ingestion ([4]; individual subject, ASA 30 mg/kg 15 min prior to MBT): 9.47 % dose/hour and 10.08 % dose/hour and 8.88 % dose/hour and 8.73 % dose/hour and 7.77 % dose/hour and 7.34 % dose/hour and 9.24 % dose/hour and 6.47 % dose/hour and 8.61 % dose/hour and 6.88 % dose/hour and 9.27 % dose/hour
change detected by ^13 C-KICA test (in words) [5]: mitochondrial changes

Structure (SMILES): O=C[C@H](O)[C@@H](O)[C@@H](O)[C@H](O)CO [galactose]
aminopyrine breath test / galactose elimination capacity (in words) [3]: normal

Structure (SMILES): O=C([O-])c1ccccc1O.[Na+] [sodium salicylate]
effect on KICA decarboxylation (in words) [1]: increase in KICA decarboxylation

MBT, Mean T1 and T2 (baseline), group mean ([4]; ASA group (n=11) before ASA): 6.17 % dose/hour
MBT, Mean T1 and T2 (baseline), group mean ([4]; alcohol group (n=9) before alcohol): 7.37 % dose/hour
mean difference between MBT test 1 and test 2 (95% CI) [6]: -0.073 (-0.475,0.330)
MBT result for all patients ([7]; all liver patients): 2.85 % dose/hour
MBT 1, group mean ([7]; cirrhotic patients, mean): 2.67 % dose/hour
MBT 2, group mean ([7]; cirrhotic patients, mean): 2.86 % dose/hour
MBT Mean, group mean ([7]; cirrhotic patients, mean of MBT 1 and 2): 2.76 % dose/hour
MBT value (mean±SD), CP A ([7]; patients with CP score A): 5.16±1.61 % dose/hour
MBT value (mean±SD), CP B ([7]; patients with CP score B): 2.81±0.94 % dose/hour
MBT value (mean±SD), CP C ([7]; patients with CP score C): 1.45±0.55 % dose/hour
Structure (SMILES): CSCC[C@H](N)C(=O)O [methionine, L-1-^13 C-methionine]
MBT 1 ([7]; cirrhotic patients, individual): 5.01 % dose/hour and 6.30 % dose/hour and 2.47 % dose/hour and 7.18 % dose/hour and 5.66 % dose/hour and 3.20 % dose/hour and 3.55 % dose/hour and 1.67 % dose/hour and 4.36 % dose/hour and 2.63 % dose/hour and 2.10 % dose/hour and 0.99 % dose/hour and 2.02 % dose/hour and 1.31 % dose/hour and 1.34 % dose/hour and 1.87 % dose/hour and 1.94 % dose/hour and 0.46 % dose/hour and 1.80 % dose/hour and 0.54 % dose/hour and 1.11 % dose/hour
MBT Mean ([7]; cirrhotic patients, individual, mean of MBT 1 and 2): 4.55 % dose/hour and 6.56 % dose/hour and 2.58 % dose/hour and 6.43 % dose/hour and 5.69 % dose/hour and 3.02 % dose/hour and 3.47 % dose/hour and 2.03 % dose/hour and 4.34 % dose/hour and 2.73 % dose/hour and 2.11 % dose/hour and 1.99 % dose/hour and 2.13 % dose/hour and 1.32 % dose/hour and 1.34 % dose/hour and 1.82 % dose/hour and 2.04 % dose/hour and 0.53 % dose/hour and 1.40 % dose/hour and 0.54 % dose/hour and 0.97 % dose/hour and 1.38 % dose/hour
MBT 2 ([7]; cirrhotic patients, individual, repeat within 12 h): 4.09 % dose/hour and 6.81 % dose/hour and 2.69 % dose/hour and 5.68 % dose/hour and 5.71 % dose/hour and 2.84 % dose/hour and 3.39 % dose/hour and 2.39 % dose/hour and 4.31 % dose/hour and 2.83 % dose/hour and 2.11 % dose/hour and 2.98 % dose/hour and 2.24 % dose/hour and 1.33 % dose/hour and 1.77 % dose/hour and 2.14 % dose/hour and 0.59 % dose/hour and 0.99 % dose/hour and 0.82 % dose/hour and 1.44 % dose/hour
correlation r of methionine clearance with CP score ([8]; cirrhotic patients): -0.80
correlation r of methionine clearance with GEC ([8]; cirrhotic patients): 0.82
plasma clearance of methionine (in words) ([8]; intravenous, liver disease / cirrhotic patients vs healthy controls): reduced
fasting plasma methionine level (in words) ([8]; liver disease vs healthy controls): elevated

Structure (SMILES): CCO [alcohol]
effect on KICA decarboxylation (in words) [1]: deceases KICA decarboxylation
mean change of MBT from baseline with alcohol ([4]; alcohol, n=9, p<0.003): -59±17%
effect of ingestion on MBT (in words) [4]: significantly decreases
MBT after alcohol ingestion ([4]; individual subject, 60 cc vodka 15 min prior to MBT): 3.36 % dose/hour and 4.54 % dose/hour and 2.76 % dose/hour and 2.22 % dose/hour and 2.97 % dose/hour and 3.39 % dose/hour and 1.86 % dose/hour and 3.52 % dose/hour and 2.45 % dose/hour
MBT after alcohol ingestion, group mean ([4]; n=9, 60 cc vodka 15 min prior to MBT): 3.01 % dose/hour and 3.01±0.81 % dose/hour
